The values that follow come from US8372844B2, “Piperazinyl-propyl-pyrazole derivatives as dopamine D4 receptor antagonists, and pharmaceutical compositions containing the same” (Korea Research Institute of Chemical Technology, priority 2007, dated 2013).

In general, IC50 refers to the concentration at which inhibition is half-maximal. The TD50 is the 50% point of the dose-response relation for the toxic effect studied. Read a high TD50 as lower toxicity.

One data set concerns the target T1, 5-HT1A receptor (Homo sapiens, UniProt P08908).
T1 sequence (P08908 1-422): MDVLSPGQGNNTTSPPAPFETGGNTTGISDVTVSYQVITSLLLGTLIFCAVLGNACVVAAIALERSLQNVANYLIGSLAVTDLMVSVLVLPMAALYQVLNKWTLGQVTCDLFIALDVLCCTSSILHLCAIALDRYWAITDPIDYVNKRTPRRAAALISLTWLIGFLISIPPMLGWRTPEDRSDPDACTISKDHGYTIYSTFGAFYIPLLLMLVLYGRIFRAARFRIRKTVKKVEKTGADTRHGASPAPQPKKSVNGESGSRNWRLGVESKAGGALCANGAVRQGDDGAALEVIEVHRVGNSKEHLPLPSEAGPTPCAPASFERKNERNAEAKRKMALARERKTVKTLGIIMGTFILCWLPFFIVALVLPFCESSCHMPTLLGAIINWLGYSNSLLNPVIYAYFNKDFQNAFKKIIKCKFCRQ
As to the kind of experiment: Serotonin receptor binding experiment, 5-HT1A. Set-up: species or system human or rat. Conditions: [3H]8-OH-DPAT 0.5 nM, 60 min at 27° C.; read-out: Receptor affinity (IC50, nM) 5-HT1A. How it is done: (§1) The measurement of affinity for serotonin 5-HT receptor family was performed according to the experimental conditions as specified in Table 2 below using the method same as in Experimental Example 1 above.

For data set [1], the system named is rotarod deficit in mice. Briefly: Rotarod deficit in mice. Format: in vivo. Particulars: for Rotarod deficit TD50 (mg/kg, ip): mice, rod rotating at 6 rpm, 30-120 min after administration; for rotarod deficit TD50 as times of ED50 for antipsychotic efficacy: mouse, in vivo, ip. How it is done:
(§2) Each mouse was administered with a test drug, and then placed on a 1 inch diameter knurled plastic rod rotating at 6 rpm (Ugo-Basile, Milano, Italy), and the rotarod deficit (%) was obtained by counting the number of mice fallen from the rotating rod within 1 min at 30, 60, 90, and 120 min after the administration of the drug.
Background: Falling from the rotarod earlier than controls is read as motor impairment.

A short description of data set [2]: Rotarod deficit in mice. Type of data set: in vivo. Conditions: mouse, in vivo, ip, mice, rod rotating at 6 rpm, 30-120 min after administration. The method, then: as §2
A further data set deals with T2, 5-HT2C receptor (Homo sapiens, UniProt P28335).
T2 sequence (P28335 33-458): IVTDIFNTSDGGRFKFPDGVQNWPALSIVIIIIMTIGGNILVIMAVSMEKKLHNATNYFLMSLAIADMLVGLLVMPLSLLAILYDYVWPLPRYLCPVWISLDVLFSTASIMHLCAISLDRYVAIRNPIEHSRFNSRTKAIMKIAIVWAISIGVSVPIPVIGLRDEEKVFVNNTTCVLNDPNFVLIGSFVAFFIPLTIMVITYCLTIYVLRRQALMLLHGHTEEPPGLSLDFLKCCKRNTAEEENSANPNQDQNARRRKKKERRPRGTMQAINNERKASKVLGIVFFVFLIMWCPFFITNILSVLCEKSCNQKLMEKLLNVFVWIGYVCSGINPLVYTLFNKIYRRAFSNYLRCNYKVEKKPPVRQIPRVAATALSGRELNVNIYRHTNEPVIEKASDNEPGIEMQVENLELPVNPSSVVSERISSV
Briefly: Serotonin receptor binding experiment, 5-HT2C. Set-up: species or system human or rat. Conditions: [3H]Mesulergine 1 nM, 30 min at 37° C.; read-out: Receptor affinity (IC50, nM) 5-HT2C. The method, then:
as §1

Data set [3] has as its target T3, Human recombinant dopamine D2 receptor (Homo sapiens, UniProt P14416).
T3 construct: purchased PerkinElmer; host or cells: CHO cell line
Briefly: Measurement of affinity for dopamine D2 receptor ([3H]spiperone binding). Conditions: for IC50: [3H]spiperone 0.5 nM, CHO cell line, 60 min at 27° C. How it is done:
Human recombinant dopamine D2 and D3 receptors, which were expressed in CHO cell lines, respectively, were purchased from PerkinElmer and Euroscreen, respectively.
50 mM Tris-HCl (pH 7.4) containing […] and 1 mM EDTA was used as a buffer solution for the measurement of affinity for dopamine D2 receptor. 50 mM Tris-HCl (pH 7.4) containing 5 mM MgCl2, 5 mM EDTA, 5 mM KCl, 1.5 mM CaCl2 and 120 mM NaCl was used as a buffer solution for the measurement of affinity for dopamine D3 receptor. For measurement of non-specific binding, 10 μM haloperidol (haloperidol) was used.

In the next data set the target is 5-HT6 receptor (Homo sapiens, UniProt P50406). Briefly: Serotonin receptor binding experiment, 5-HT6. Also noted: species or system human or rat. Particulars: [3H]LSD 1.8 nM, 60 min at 37° C.; read-out: Receptor affinity (IC50, nM) 5-HT6. How it is done:
as §1

Where only a bound is given, the exact number is not on record here.

5-HT6 receptor, sequence (P50406 whole entry): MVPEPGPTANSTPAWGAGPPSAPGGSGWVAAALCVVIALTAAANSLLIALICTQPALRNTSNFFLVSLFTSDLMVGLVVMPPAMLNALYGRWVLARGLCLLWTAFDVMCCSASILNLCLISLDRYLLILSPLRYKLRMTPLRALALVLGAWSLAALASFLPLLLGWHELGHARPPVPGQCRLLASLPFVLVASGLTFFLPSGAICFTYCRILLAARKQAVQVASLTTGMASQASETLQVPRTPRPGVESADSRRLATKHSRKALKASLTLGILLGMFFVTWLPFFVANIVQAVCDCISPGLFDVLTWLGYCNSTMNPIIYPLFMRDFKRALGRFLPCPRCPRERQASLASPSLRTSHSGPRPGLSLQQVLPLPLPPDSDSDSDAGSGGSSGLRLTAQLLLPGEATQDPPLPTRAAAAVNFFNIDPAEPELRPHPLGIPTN
T3 sequence (P14416 whole entry): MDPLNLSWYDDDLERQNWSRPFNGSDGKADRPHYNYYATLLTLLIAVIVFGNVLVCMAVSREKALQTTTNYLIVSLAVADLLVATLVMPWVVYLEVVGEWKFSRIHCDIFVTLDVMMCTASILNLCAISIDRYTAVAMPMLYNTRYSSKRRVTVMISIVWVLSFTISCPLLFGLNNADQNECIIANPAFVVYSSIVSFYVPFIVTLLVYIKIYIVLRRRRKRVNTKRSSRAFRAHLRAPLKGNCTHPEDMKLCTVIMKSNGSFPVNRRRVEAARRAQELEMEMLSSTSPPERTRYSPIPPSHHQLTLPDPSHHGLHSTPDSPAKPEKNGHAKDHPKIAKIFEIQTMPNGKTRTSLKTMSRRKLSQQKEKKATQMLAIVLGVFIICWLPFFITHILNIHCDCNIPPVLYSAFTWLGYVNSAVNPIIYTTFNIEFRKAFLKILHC

As to `CCCc1cc(CCCN2CCN(c3ccccc3)CC2)n(-c2ccccc2)n1` [Compound 155, 1-phenyl-4-(3-(1-phenyl-3-propyl-1H-pyrazol-5-yl)propyl)piperazine], the IC50 was 109 nM on 5-HT1A receptor, 671 nM at 5-HT2C receptor, 5260 nM in data set [3] and over 10000 nM at 5-HT6 receptor. Besides, in the data set on rotarod deficit in mice [1], the “Rotarod deficit TD50 (mg/kg, ip)” value came to 28.5 mg/kg. Also, the “rotarod deficit TD50 as times of ED50 for antipsychotic efficacy” value (“rotarod deficit TD50 as times of ED50” for short) with rotarod deficit in mice [1] is recorded as 2.2-5 times. This compound also gave a TD50 in “Rotarod deficit in mice [2]” of 20 to 50 mg/kg. For the same compound, in data set [3], the “affinity for D2 receptors (in words)” value is recorded as “extremely poor affinity”.

Consider `CCCc1cc(CCCN2CCN(c3ccccc3F)CC2)n(-c2ccccc2)n1` [Compound 156, 1-(2-fluorophenyl)-4-(3-(1-phenyl-3-propyl-1H-pyrazol-5-yl)propyl)piperazine], for which the IC50 at 5-HT1A receptor is 126 nM; at 5-HT2C receptor, 1400 nM; in data set [3], 696 nM; at 5-HT6 receptor, over 10000 nM. For the same compound, the “Rotarod deficit TD50 (mg/kg, ip)” value with rotarod deficit in mice [1] amounted to 26.0 mg/kg. The “rotarod deficit TD50 as times of ED50” value in the data set with rotarod deficit in mice [1] was 2.2-5 times. Also, the TD50 in “Rotarod deficit in mice [2]” was in the range of 20 to 50 mg/kg. Besides, in data set [3], the “affinity for D2 receptors (in words)” value is on record as “extremely poor affinity”.

On to `CCCc1cc(CCCN2CCN(c3ccc(C)c(C)c3)CC2)n(-c2ccccc2)n1` [Compound 159, 1-(3,4-dimethylphenyl)-4-(3-(1-phenyl-3-propyl-1H-pyrazol-5-yl)propyl)piperazine], for which the IC50 at 5-HT1A receptor is 413 nM; at 5-HT2C receptor, 154 nM; in data set [3] it was 2050 nM; at 5-HT6 receptor, 2500 nM. Further, the “Rotarod deficit TD50 (mg/kg, ip)” value in the data set on rotarod deficit in mice [1] came out at 35.3 mg/kg. Besides, the “rotarod deficit TD50 as times of ED50” value in the data set on rotarod deficit in mice [1] is on record as 2.2-5 times. The same compound registered a TD50 in the data set “Rotarod deficit in mice [2]” of 20 to 50 mg/kg. In addition, in data set [3], the “affinity for D2 receptors (in words)” value is “extremely poor affinity”.

In the case of `CCCc1cc(CCCN2CCN(c3cccc(C)c3C)CC2)n(-c2ccccc2)n1` [Compound 160, 1-(2,3-dimethylphenyl)-4-(3-(1-phenyl-3-propyl-1H-pyrazol-5-yl)propyl)piperazine], the IC50 at 5-HT1A receptor is 50 nM; on 5-HT2C receptor it was 141 nM; in data set [3], 3790 nM; on 5-HT6 receptor, 2010 nM. For the same compound, in the data set on rotarod deficit in mice [1], the “Rotarod deficit TD50 (mg/kg, ip)” value is given as 24.6 mg/kg. For the same compound, in the data set on rotarod deficit in mice [1], the “rotarod deficit TD50 as times of ED50” value is given as 2.2-5 times. Also, in “Rotarod deficit in mice [2]”, the TD50 fell in the range of 20 to 50 mg/kg. Further, the “affinity for D2 receptors (in words)” value in data set [3] is “extremely poor affinity”.

For the compound `CC(C)c1cc(CCCN2CCN(c3ccccc3F)CC2)n(-c2ccccc2)n1` [Compound 177, 1-(2-fluorophenyl)-4-(3-(1-phenyl-3-isopropyl-1H-pyrazol-5-yl)propyl)piperazine], the IC50 at 5-HT1A receptor was 37 nM; on 5-HT2C receptor, 505 nM; in data set [3], 227 nM; on 5-HT6 receptor, 9210 nM. For the same compound, the “Rotarod deficit TD50 (mg/kg, ip)” value in the data set with rotarod deficit in mice [1] was 19.4 mg/kg. For the same compound, the “rotarod deficit TD50 as times of ED50” value in the data set with rotarod deficit in mice [1] is recorded as 2.2-5 times. For the same compound, the TD50 in “Rotarod deficit in mice [2]” was in the range of 20 to 50 mg/kg. For the same compound, the “affinity for D2 receptors (in words)” value in data set [3] is recorded as “extremely poor affinity”.
